Bridge positions count the residues as written; N and C are the ends. Square brackets hold non-standard residues; d marks the D form. Peptide text beside a SMILES is read from it. R8 = C=CCCCCCC[C@@](C)(N)C(=O)O; S5 = C=CCCC[C@](C)(N)C(=O)O; Nle = CCCC[C@H](N)C(=O)O

Consider 9 molecules from patent US20190225650A1, “PEPTIDOMIMETIC MACROCYCLES AND USE THEREOF IN REGULATING HIF1ALPHA” (AILERON THERAPEUTICS, INC., priority 2013, published 2019).

In assay [1] the target is T1, flag-tagged HIF1α (AA 786-826) / His6-tagged p300 (AA 323-423) complex (Homo sapiens, UniProt Q09472).
T1 construct: His6-tagged p300 (AA 323-423); made in house; host or cells: E. coli (pETDuet vector)
Kind of assay: HIF1α p300 displacement assay (TR FRET, +CHAPS). In kind it is binding. The following applies: read-out: IC50 (nM) (HIF1α_p300 Displacement + CHAPS). An outline of the steps:
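The co-expressed flag-HIF1α (786-826)/His6-p300 (323-423) complex, purified from E. coli with 0.1 mM ZnSO4, was used at 300 nM final with competitor peptides for 1 h at room temperature. Buffer was 150 mM NaCl, 20 mM HEPES pH 7.4, 7.5 mM CHAPS and 1 mM DTT. Anti-Flag-K (0.5 μM) and anti-His-D2 (4 nM) were then added for 2 h, and IC50s were fitted from the TR-FRET ratio.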

The subject of assay [2] is HRE-bla ME-180 cells. The assay is described as follows: Reporter gene assay (HRE-bla ME-180 HIF reporter, GeneBLAzer). It is filed as cell-based, human. As to conditions: for EC50: 24 hour normoxia. The procedure, abridged:
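A FRET β-lactamase readout of HIF transcription was used. After compound treatment in 0.3% DMSO/media under normoxic conditions, 20 μl of 6× LiveBLAzer-FRET B/G (CCF4-AM) substrate was added. Plates sat 3 hr at room temperature in the dark and were read at 409 Ex/460Em and 409Ex/530Em on a Synergy 2. Inhibition was compared against DMSO vehicle controls, with chetomin as positive control.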

Assay [3] deals with HRE-bla ME-180 cells. Kind of assay: Cell proliferation assay (viability, MTT, 1% FBS). It is filed as cell-based, human. An outline of the steps: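 ME-180 cells (2×10^4/well) in Opti-MEM with 1% FBS were pretreated 16 h under normoxia (21% O2), vehicle 0.5% DMSO final. Incubation then continued under normoxia or hypoxia (1% O2); viable cells quantified by MTT-type CellTiter 96 assay.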

In the case of `CCCC[C@H](NC(=O)[C@H](CCC(=O)O)NC(=O)[C@]1(C)CCCC=CCCCCCC[C@@](C)(NC(=O)[C@H](CCC(=O)O)NC(=O)[C@H](CC(=O)O)NC(=O)[C@@H](NC(=O)[C@H](CC(N)=O)NC(=O)[C@@H](NC(=O)[C@H](CCC(N)=O)NC(=O)[C@H](CC(=O)O)NC(=O)[C@H](CC(C)C)NC(=O)[C@H](C)NC(=O)[C@H](CCCNC(=N)N)NC(=O)[C@]2(C)CCCC=CCCC[C@](C)(NC(=O)[C@H](CCC(N)=O)NC(=O)[C@H](CC(C)C)NC(=O)[C@H](CC(C)C)NC(C)=O)C(=O)N[C@@H](CCC(=O)O)C(=O)N[C@@H](CCC(=O)O)C(=O)N[C@@H](CC(C)C)C(=O)N2)C(C)C)[C@@H](C)CC)C(=O)N[C@@H](C(C)C)C(=O)N[C@@H](CC(C)C)C(=O)N[C@@H](CCCC)C(=O)N[C@@H](CO)C(=O)N[C@@H](CC(C)C)C(=O)N[C@@H](C(C)C)C(=O)N1)C(=O)NCC(N)=O` [SP-310] (Ac-LLQ[S5]EEL[S5]RALDQVNIDE[R8]VL[Nle]SLV[S5]E[Nle]G-NH2; staple 4-8, 19-26), the concentration for half-maximal inhibition (IC50) in assay [1] lay within 400 to 700 nM. In assay [2], the “18 h Avg % max inhibition at top conc (HIF Rptr-24 hrs normoxia) (μM)” value (shortened to “18 h Avg % max inhibition at top conc”) is reported as “+ (<10: +)” and the EC50 is above 30 µM. For the same molecule, the “Viability 1% FBS AVG (MTT V3-24 hr Normoxia) (μM)” value (“Viability 1% FBS AVG” for short) in assay [3] was “++++ (≥30: ++++)”.

For `CCCC[C@H](NC(=O)[C@]1(C)CCCC=CCCC[C@](C)(NC(=O)[C@H](CCCC)NC(=O)[C@H](CC(C)C)NC(=O)[C@@H](NC(=O)[C@H](CCC(=O)O)NC(=O)[C@H](C)NC(=O)[C@H](CC(=O)O)NC(=O)[C@@H](NC(=O)[C@H](CC(N)=O)NC(=O)[C@@H](NC(=O)[C@]2(C)CCCC=CCCCCCC[C@@](C)(NC(=O)[C@H](CCC(=O)O)NC(=O)CNC(=O)[C@H](CCC(N)=O)NC(=O)[C@H](CC(C)C)NC(=O)[C@H](CC(C)C)NC(C)=O)C(=O)N[C@@H](CC(C)C)C(=O)N[C@@H](CC(C)C)C(=O)N[C@@H](CCCNC(=N)N)C(=O)N[C@@H](C)C(=O)N[C@@H](CC(C)C)C(=O)N[C@@H](CC(=O)O)C(=O)N2)C(C)C)[C@@H](C)CC)C(C)C)C(=O)N[C@@H](CC(C)C)C(=O)N[C@@H](C(C)C)C(=O)N[C@@H]([C@@H](C)CC)C(=O)N1)C(N)=O` [SP-346] (Ac-LLQGE[R8]LLRALD[S5]VNIDAEVL[Nle][S5]LVI[S5][Nle]-NH2; staple 6-13, 23-27), in assay [1], the concentration for half-maximal inhibition (IC50) is at most 200 nM. In assay [2], the “18 h Avg % max inhibition at top conc” value was “++ (≤10 but <25: ++)” and the concentration giving a half-maximal response (EC50) was above 30 µM. In addition, the “Viability 1% FBS AVG” value in assay [3] was “++++ (≥30: ++++)”.

In the case of `CCCC[C@H](NC(=O)[C@H](CCC(=O)O)NC(=O)[C@@H](NC(=O)[C@@H](NC(=O)[C@H](CC(C)C)NC(=O)[C@]1(C)CCCC=CCCC[C@](C)(NC(=O)[C@H](C)NC(=O)[C@H](CC(=O)O)NC(=O)[C@@H](NC(=O)[C@H](Cc2ccccc2)NC(C)=O)[C@@H](C)CC)C(=O)N[C@@H]([C@@H](C)O)C(=O)N[C@@H](CC(C)C)C(=O)N[C@@H](CCCC)C(=O)N1)C(C)C)[C@@H](C)CC)C(=O)N[C@@H](C)C(=O)N[C@@H](CC(C)C)C(N)=O` [SP-149] (Ac-FIDA[S5]TL[Nle][S5]LVIE[Nle]AL-NH2; staple 5-9), the IC50 in assay [1] lay in the range of 400 to 700 nM. For the same molecule, in assay [2], the “18 h Avg % max inhibition at top conc” value is reported as “++++ (≥50: ++++)” and the EC50 is 5 to 15 µM. In assay [3], the “Viability 1% FBS AVG” value is “+ (<5: +)”.

As to `CCCC[C@H](NC(=O)[C@H](CCC(=O)O)NC(=O)[C@@H](NC(=O)[C@@H](NC(=O)[C@H](CC(C)C)NC(=O)[C@]1(C)CCCC=CCCC[C@](C)(NC(=O)[C@H](CCC(=O)O)NC(=O)[C@H](CC(=O)O)NC(=O)[C@@H](NC(=O)[C@H](CC(N)=O)NC(=O)[C@@H](NC(=O)[C@H](CCC(N)=O)NC(=O)[C@H](CC(=O)O)NC(=O)[C@H](CC(C)C)NC(=O)[C@H](C)NC(=O)[C@H](CCCNC(=N)N)NC(=O)[C@H](CC(C)C)NC(=O)[C@H](CC(C)C)NC(=O)[C@H](CCC(=O)O)NC(=O)[C@H](CCC(=O)O)NC(=O)CNC(=O)[C@H](CCC(N)=O)NC(=O)[C@H](CC(C)C)NC(=O)[C@H](CC(C)C)NC(C)=O)C(C)C)[C@@H](C)CC)C(=O)N[C@@H](C(C)C)C(=O)N[C@@H](CC(C)C)C(=O)N[C@@H](CCCC)C(=O)N1)C(C)C)[C@@H](C)CC)C(N)=O` [SP-334] (Ac-LLQGEELLRALDQVNIDE[S5]VL[Nle][S5]LVIE[Nle]-NH2; staple 19-23), in assay [1], the IC50 lay in the range of 200 to 400 nM. For the same molecule, in assay [2], the “18 h Avg % max inhibition at top conc” value is on record as “+ (<10: +)” and the EC50 was above 30 µM. Also, the “Viability 1% FBS AVG” value in assay [3] is recorded as “++++ (≥30: ++++)”.

As to `CCCC[C@H](NC(=O)[C@H](CCC(=O)O)NC(=O)[C@]1(C)CCCC=CCCCCCC[C@@](C)(NC(=O)[C@H](CCC(=O)O)NC(=O)[C@H](C)NC(=O)[C@H](C)NC(=O)[C@H](C)NC(=O)[C@H](C)NC(=O)[C@]2(C)CCCC=CCCCCCC[C@@](C)(NC(=O)[C@H](CCC(=O)O)NC(=O)CNC(=O)[C@H](CCC(N)=O)NC(=O)[C@H](CC(C)C)NC(=O)[C@H](CC(C)C)NC(C)=O)C(=O)N[C@@H](CC(C)C)C(=O)N[C@@H](CC(C)C)C(=O)N[C@@H](CCCNC(=N)N)C(=O)N[C@@H](C)C(=O)N[C@@H](CC(C)C)C(=O)N[C@@H](CC(=O)O)C(=O)N2)C(=O)N[C@@H](C(C)C)C(=O)N[C@@H](CC(C)C)C(=O)N[C@@H](CCCC)C(=O)N[C@@H](CO)C(=O)N[C@@H](CC(C)C)C(=O)N[C@@H](C(C)C)C(=O)N1)C(N)=O` [SP-352] (Ac-LLQGE[R8]LLRALD[S5]AAAAE[R8]VL[Nle]SLV[S5]E[Nle]-NH2; staple 6-13, 19-26), the IC50 in assay [1] was at most 200 nM. Further, in assay [2], the “18 h Avg % max inhibition at top conc” value is reported as “++ (≤10 but <25: ++)” and the EC50 is above 30 µM. Also, the “Viability 1% FBS AVG” value in assay [3] is “++++ (≥30: ++++)”.

Consider `CCCC[C@H](NC(=O)[C@H](CCC(=O)O)NC(=O)[C@@H](NC(=O)[C@@H](NC(=O)[C@H](CC(C)C)NC(=O)[C@]1(C)CCCC=CCCC[C@](C)(NC(=O)[C@H](CCC(=O)O)NC(=O)[C@H](CCCNC(=N)N)NC(=O)[C@@H](NC(=O)[C@H](Cc2ccccc2)NC(C)=O)[C@@H](C)CC)C(=O)N[C@@H](C(C)C)C(=O)N[C@@H](CC(C)C)C(=O)N[C@@H](CCCC)C(=O)N1)C(C)C)[C@@H](C)CC)C(=O)N[C@@H](C)C(=O)N[C@@H](CC(C)C)C(N)=O` [SP-155] (Ac-FIRE[S5]VL[Nle][S5]LVIE[Nle]AL-NH2; staple 5-9), for which, in assay [1], the IC50 was above 700 nM. In assay [2], the “18 h Avg % max inhibition at top conc” value is “++ (≤10 but <25: ++)” and the EC50 was above 30 µM. Besides, the “Viability 1% FBS AVG” value in assay [3] was “++++ (≥30: ++++)”.

As to `CCCC[C@H](NC(=O)[C@H](CCC(=O)O)NC(=O)[C@@H](NC(=O)[C@@H](NC(=O)[C@H](CC(C)C)NC(=O)[C@]1(C)CCCC=CCCC[C@](C)(NC(=O)[C@H](CCC(=O)O)NC(=O)[C@H](CC(=O)O)NC(=O)[C@H](CO)NC(=O)[C@H](Cc2ccccc2)NC(C)=O)C(=O)N[C@@H](C(C)C)C(=O)N[C@@H](CC(C)C)C(=O)N[C@@H](CCCC)C(=O)N1)C(C)C)[C@@H](C)CC)C(=O)N[C@@H](C)C(=O)N[C@@H](CC(C)C)C(N)=O` [SP-154] (Ac-FSDE[S5]VL[Nle][S5]LVIE[Nle]AL-NH2; staple 5-9), in assay [1], the IC50 lay within 200 to 400 nM. Further, in assay [2], the “18 h Avg % max inhibition at top conc” value is listed as “+ (<10: +)” and the concentration giving a half-maximal response (EC50) was above 30 µM. Besides, the “Viability 1% FBS AVG” value in assay [3] is reported as “++++ (≥30: ++++)”.

Turning to `CCCC[C@H](NC(=O)[C@H](Cc1ccccc1)NC(=O)[C@@H](NC(=O)[C@H](CCC(=O)O)NC(=O)[C@H](CCC(=O)O)NC(=O)[C@H](CC(=O)O)NC(=O)[C@@H](NC(=O)[C@H](Cc1ccccc1)NC(C)=O)[C@@H](C)CC)C(C)C)C(=O)N[C@@]1(C)CCCC=CCCC[C@@](C)(C(=O)N[C@@H](CCCC)C(=O)N[C@@H](C)C(=O)N[C@@H](CC(C)C)C(=O)N[C@@H](CC(=O)O)C(=O)N[C@@H](CCCNC(=N)N)C(=O)N[C@H](C(N)=O)[C@@H](C)CC)NC(=O)[C@H]([C@@H](C)CC)NC(=O)[C@H](C(C)C)NC(=O)[C@H](CC(C)C)NC1=O` [SP-265] (Ac-FIDEEVF[Nle][S5]LVI[S5][Nle]ALDRI-NH2; staple 9-13), the IC50 in assay [1] lay within 200 to 400 nM. Moreover, in assay [2], the “18 h Avg % max inhibition at top conc” value is listed as “++++ (≥50: ++++)” and the EC50 fell in the range of 5 to 15 µM. In addition, in assay [3], the “Viability 1% FBS AVG” value is listed as “++++ (≥30: ++++)”.

As to `CCCC[C@@H]1NC(=O)[C@H](CC(C)C)NC(=O)[C@H](CC(N)=O)NC(=O)[C@@](C)(NC(=O)[C@H](CCC(=O)O)NC(=O)[C@H](CC(=O)O)NC(=O)[C@@H](NC(=O)[C@H](Cc2ccccc2)NC(C)=O)[C@@H](C)CC)CCCC=CCCCC2(CCCC=CCCC[C@](C)(C(=O)N[C@@H](CCCC)C(=O)N[C@@H](C)C(=O)N[C@@H](CC(C)C)C(N)=O)NC(=O)[C@H]([C@@H](C)CC)NC(=O)[C@H](C(C)C)NC(=O)[C@H](CC(C)C)NC2=O)NC1=O` (stereo partly drawn) [SP-208], in assay [1], the concentration for half-maximal inhibition (IC50) was above 700 nM. Besides, in assay [2], the “18 h Avg % max inhibition at top conc” value is reported as “+++ (≤25 but <50: +++)” and the EC50 lay in the range of 5 to 15 µM. The “Viability 1% FBS AVG” value in assay [3] is “++ (≤5 but <15: ++)”.
